In patent publication US6617325B1, “Biphenyl derivatives, production thereof and uses as medicines” (Boehringer Ingelheim Pharma KG, priority 1999, dated 2003):

CCC(CCCN1CCC(NC(=O)c2ccccc2-c2ccc(C(F)(F)F)cc2)CC1)(CC(=O)OC)c1ccccc1 (stereo not shown) [Example 2, Methyl 2-ethyl-2-phenyl-5-{4-[(4′-trifluoromethyl-biphenyl-2-carbonyl)-amino]-piperidin-1-yl}-pentanecarboxylate]
melting point: 110 °C
